Measured values taken from the supplement of paper PMC11061612.

What was measured:
Assay in all cases: combination Emax (second highest fraction inhibited in the dose matrix, 72 h); higher = more inhibition; extreme values may be limits of the assay
WM278 (Melanoma) = system: WM278 (Melanoma)
Outline: (§1)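 Bliss excess equals the observed combination effect minus the expected value EA + EB − EA·EB, where EA and EB are the effects of each agent alone. Combination Emax is the second-highest inhibition within the matrix. Inhibition was scaled from CellTiter-Glo 2.0 luminescence, with 0 set by vehicle wells and 1 by blank wells, after 72 hours of two-drug dosing of cells plated in 1536-well plates.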

[1] = system: HCT-15 (Colorectal Carcinoma)
Outline: as §1

WM793B (Melanoma) = system: WM793B (Melanoma)
Outline: as §1

[2] = system: CAL-120 (Breast Carcinoma)
Outline: as §1

[3] = system: NCI-H23 (Lung Adenocarcinoma)
Outline: as §1

[4] = system: RERF-GC-1B (Gastric Carcinoma)
Outline: as §1

IST-MES1 (Mesothelioma) = system: IST-MES1 (Mesothelioma)
Outline: as §1

[5] = system: COLO-680N (Esophageal Squamous Cell Carcinoma)
Outline: as §1

[6] = system: LK-2 (Squamous Cell Lung Carcinoma)
Outline: as §1

[7] = system: RERF-LC-Sq1 (Squamous Cell Lung Carcinoma)
Outline: as §1

A2058 (Melanoma) = system: A2058 (Melanoma)
Outline: as §1

GB-1 (Glioblastoma) = system: GB-1 (Glioblastoma)
Outline: as §1

[8] = system: PSN1 (Pancreatic Carcinoma)
Outline: as §1

[9] = system: SK-PN-DW (Other Solid Carcinomas)
Outline: as §1

[10] = system: OVMIU (Ovarian Carcinoma)
Outline: as §1

[11] = system: SHP-77 (Small Cell Lung Carcinoma)
Outline: as §1

[12] = system: GP5d (Colorectal Carcinoma)
Outline: as §1

[13] = system: 23132-87 (Gastric Carcinoma)
Outline: as §1

[14] = system: MKN45 (Gastric Carcinoma)
Outline: as §1

[15] = system: LB996-RCC (Kidney Carcinoma)
Outline: as §1

Compound | combination Emax (WM278 (Melanoma)) | combination Emax [1] | combination Emax (WM793B (Melanoma)) | combination Emax [2] | combination Emax [3] | combination Emax [4] | combination Emax (IST-MES1 (Mesothelioma)) | combination Emax [5] | combination Emax [6] | combination Emax [7] | combination Emax (A2058 (Melanoma)) | combination Emax (GB-1 (Glioblastoma)) | combination Emax [8] | combination Emax [9] | combination Emax [10] | combination Emax [11] | combination Emax [12] | combination Emax [13] | combination Emax [14] | combination Emax [15]
CC1(C)CCC(CN2CCN(c3ccc(C(=O)NS(=O)(=O)c4ccc(NCC5CCOCC5)c([N+](=O)[O-])c4)c(Oc4cnc5[nH]ccc5c4)c3)CC2)=C(c2ccc(Cl)cc2)C1 [Venetoclax] + C[C@@H]1COCCN1C2=NC(=NC(=C2)C3(CC3)[S@](=N)(=O)C)C4=C5C=CNC5=NC=C4 [AZD6738] (first compound max 1 µM, 7x7, partner max 10 µM) | 0.623 | 0.71 | 0.814 | 0.384 | 0.822 | 0.428 | 0.396 | 0.278 | 0.494 | 0.675 | 0.788 | 0.424 | 0.396 | 0.929 | 0.537 | 0.697 | 0.739 | 0.433 | 0.678 | 0.654
CC1(C)CCC(CN2CCN(c3ccc(C(=O)NS(=O)(=O)c4ccc(NCC5CCOCC5)c([N+](=O)[O-])c4)c(Oc4cnc5[nH]ccc5c4)c3)CC2)=C(c2ccc(Cl)cc2)C1 [Venetoclax] + C[C@@H](Nc1cc(F)cc(F)c1)c1cc(C(=O)N(C)C)cc2c(=O)cc(N3CCOCC3)oc12 [AZD8186] (first compound max 1 µM, 7x7, partner max 3 µM) | 0.306 | 0.138 | 0.36 | 0.12 | 0.148 | 0.103 | 0.176 | 0.111 | 0.0674 | 0.121 | 0.158 | 0.168 | 0.313 | 0.862 | 0.575 | 0.322 | 0.228 | 0.0687 | 0.602 | 0.306
CC1(C)CCC(CN2CCN(c3ccc(C(=O)NS(=O)(=O)c4ccc(NCC5CCOCC5)c([N+](=O)[O-])c4)c(Oc4cnc5[nH]ccc5c4)c3)CC2)=C(c2ccc(Cl)cc2)C1 [Venetoclax] + Cc1cc2ncnn2cc1Nc1ncc2c(n1)n(C1CCOCC1)c(=O)n2C [AZD7648] (first compound max 1 µM, 7x7, partner max 10 µM) | 0.269 | 0.229 | 0.309 | 0.125 | 0.184 | 0.28 | 0.195 | 0.161 | 0.266 | 0.229 | 0.203 | 0.135 | 0.37 | 0.856 | 0.374 | 0.34 | 0.374 | 0.152 | 0.588 | 0.373
CC1(C)CCC(CN2CCN(c3ccc(C(=O)NS(=O)(=O)c4ccc(NCC5CCOCC5)c([N+](=O)[O-])c4)c(Oc4cnc5[nH]ccc5c4)c3)CC2)=C(c2ccc(Cl)cc2)C1 [Venetoclax] + Cn1cnc2c(F)c(Nc3ccc(Br)cc3Cl)c(C(=O)NOCCO)cc21 [Selumetinib] (first compound max 1 µM, 7x7, partner max 3 µM) | 0.633 | 0.156 | 0.42 | 0.106 | 0.264 | 0.27 | 0.161 | 0.159 | 0.172 | 0.312 | 0.493 | 0.0816 | 0.622 | 0.806 | 0.479 | 0.455 | 0.71 | 0.0843 | 0.65 | 0.156
